Measured values from patent US12590950B2, “Methods for predicting ER-mediated DNA damage” (UNIVERSITY OF MASSACHUSETTS, priority 2019, dated 2026).
Read-outs that look alike come from different tables or passages of the source.

Key:
[1] = target: T1, estrogen receptor (Homo sapiens, UniProt P03372); experiment: Luciferase reporter assay (ERE-luciferase transactivation) in T47D-KBluc cells; format: cell-based; conditions: for LOEC (lowest-observed-effect-concentration) for transcription in luciferase assay: T47D-KBluc, 24 h treatment
T1 sequence (P03372 1-595): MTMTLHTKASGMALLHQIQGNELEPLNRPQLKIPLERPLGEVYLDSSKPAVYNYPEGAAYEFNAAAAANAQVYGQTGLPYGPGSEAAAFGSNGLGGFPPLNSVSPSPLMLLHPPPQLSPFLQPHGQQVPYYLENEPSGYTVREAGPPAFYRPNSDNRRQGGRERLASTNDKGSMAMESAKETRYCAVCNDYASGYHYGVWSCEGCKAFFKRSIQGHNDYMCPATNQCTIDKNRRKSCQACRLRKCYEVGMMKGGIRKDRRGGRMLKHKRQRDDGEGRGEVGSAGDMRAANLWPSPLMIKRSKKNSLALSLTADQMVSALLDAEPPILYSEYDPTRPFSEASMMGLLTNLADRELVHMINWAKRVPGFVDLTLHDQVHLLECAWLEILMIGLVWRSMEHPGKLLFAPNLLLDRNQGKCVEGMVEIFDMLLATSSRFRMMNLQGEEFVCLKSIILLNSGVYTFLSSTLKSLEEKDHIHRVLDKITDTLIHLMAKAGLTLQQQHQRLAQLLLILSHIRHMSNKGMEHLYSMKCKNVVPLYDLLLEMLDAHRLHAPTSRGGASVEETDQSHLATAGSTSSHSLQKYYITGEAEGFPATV

[2] = system: AREG and PGR; experiment: RT-qPCR of endogenous ER target genes AREG and PGR in T47D and MCF-7 cell lines; format: cell-based, human; conditions: for induction of endogenous ER target genes AREG and PGR: 1 μM, T47D and MCF-7; for transcription by endogenous gene expression: 5 μM BP3, 1 μM PP
[3] = system: T47D cells; experiment: S9.6 immunostaining (R-loops) in T47D cells; format: cell-based, human; conditions: 5 μM, vs vehicle-treated control
Experimental: Immunostaining: Cells were grown in clearing media for 48 h and plated on 20 mm coverslip in 12 well plates with a density of 2×10^5 cells/well. After 24 h of growth, cells were treated with 10 nM E2, 1 or 5 μM BP3, and 1 or 5 μM PP with or without 1 μM fulvestrant. γH2AX/ERα: Cells were fixed in ice-cold methanol (100%) for 10 mins and quenched with 0.1 M Glycine for 15 mins. Cells were washed with 1×PBS, blocked in 2% BSA/PBS with 0.1% Triton-X 100 for 1 hr at room temperature (RT), incubated overnight with γH2AX antibody (Cell Signaling #9718 S) or ERα antibody (Santa Cruz Biotechnology #sc-8002) at 4° C. and 1 hour with secondary antibody. S9.6: Cells were fixed in ice-cold 100% methanol for 10 min at −20° C., permeabilized in 100% acetone for 1 min at RT, blocked for 30 min in saline sodium citrate pH 7 (SSC, 4×), 3% BSA, 0.1% Triton-X and incubated with S9.6 (Kerafast #ENH001) 2 hr at RT followed by 1 h with secondary antibody. If indicated, slides were treated with RNase H (NEB #M0297L) for 4 hr at 37° C. prior to incubation with primary antibody. Stained cells were mounted with Vectashield mounting medium containing DAPI (Vector Laboratories #H-1200). […] Analysis of γH2AX and S9.6 intensity per nucleus or foci per nucleus was calculated using Nikon analysis software, where DAPI was used as a mask for the nucleus.

[4] = Acute oral exposure of ovariectomized mice: uterine weight; format: in vivo, mouse; conditions: 4 days, BP3 3000, PP 10000 μg/kg/d
Description: Animal Treatment: Forty mature female mice (8 weeks old) BALB/c mice were purchased from Jackson Laboratory and housed in temperature-controlled facilities with a 12-hour alternating day/night light cycle and fed LabChow 5058 ad libitum. All procedures were in accordance with the national guidelines for the care and use of animals and approved by the University of Massachusetts Amherst's Institutional Animal Care and Use Committee.
The mice were ovariectomized before treatment. Briefly, each mouse was anaesthetized with a mix of isofluorance and oxygen. The flanks were shaved, sterilized with betadine and cleaned with alcohol. An incision was made to the skin on the right flank. The underlying muscle layer was nicked to reveal a small hole through which ovary was pulled out by grasping the periovarian fat. A Serrifin clamp was used to hold the ovary. After making sure the blood vessels were constricted to prevent […], the ovary was cut from the uterine horn. The periovarian fat was restored into the peritoneum. The peritoneum was closed with one or two stiches and the skin was closed with 9 mm wound clips. The procedure was repeated on the contralateral side. The mouse was monitored for a week post-procedure and wound clips were removed after 10 days. […]

[5] = system: 76N-Tert-ESR1 cell line; conditions: human, 5 µM
[6] = target: T2, ER (Homo sapiens, UniProt P03372); conditions: 10 μM; cited from earlier work
T2 sequence (P03372 1-595): T1 sequence (P03372 1-595)

[7] = development and reproductive toxicity assays; cited from earlier work
[8] = also printed as 200 μg/L; cited from earlier work
[9] = system: normal human keratin cell lines; conditions: cited from earlier work
[10] = target: T2, ER; design: host or cells: MCF-7; conditions: MCF-7, 1 μM; cited from earlier work
[11] = system: 76N-Tert-ESR1 cell line; experiment: S9.6 immunostaining (R-loops) in 76N-Tert-ESR1 cells induced with doxycycline; conditions: 76N-Tert-ESR1 after induction of ERα with doxycycline, 5 μM

| Compound | LOEC (lowest-observed-effect-concentration) for transcription in luciferase assay [1] | concentration at which transcriptional response is observed [2] | induction of endogenous ER target genes AREG and PGR [2] | transcription by endogenous gene expression [2] | nuclear S9.6 foci (R-loops) [3] | uterine weights compared to the control treatment [4] | nuclear S9.6 foci [5] | induction of gene expression (ERE-CAT reporter) [6] | no-adverse-effect-level (NOAEL) dose [7] | Relative Transactivation Activity at 90%ile or 95%ile (% RTA vs E2) ([1]; at 95%ile urine concentration of non-pregnant women) | Relative Transactivation Activity at 90%ile or 95%ile (% RTA vs E2) ([1]; at 95%ile urine concentration of pregnant women) | maximum relative transactivation activity (RTA) compared to 10 nM E2 ([1]; maximum) | serum level following exposure in women [8] | concentration inducing γH2AX foci [9] | ER agonism in transactivation and proliferation assays [10] | nuclear S9.6 foci [11] |
| --- | --- | --- | --- | --- | --- | --- | --- | --- | --- | --- | --- | --- | --- | --- | --- | --- |
| CCCOC(=O)c1ccc(O)cc1 [PP, propyl parahydroxybenzoate] | 0.5 µM | greater than 5 μM | poor agonists | no significant increase in transcription | significantly higher | not sufficient | increased number of nuclear S9.6 foci significantly over vehicle-treated control | 1.3 fold | 10000 µg/kg/day |  |  |  |  |  |  |  |
| COc1ccc(C(=O)c2ccccc2)c(O)c1 [BP3, 2-Hydroxy-4-methoxybenzophenone] | 5 µM | greater than 5 μM | poor agonists | no significant increase in transcription | significantly higher | not sufficient |  |  | 3000 µg/kg/day | 18.91 ± 6.62% | 27.16±6.2% | 37% | approximately 0.87 μM | 10 µM | weak agonist | increased number of nuclear S9.6 foci significantly over vehicle-treated control |
